Results as given in a melting point compilation (Tetko et al.; mined from patent text by program, amines drawn as free bases though some values may be those of a salt).

melting point | SMILES
150 to 152 °C | Cc1oc(=O)oc1Cn1nnc(-c2ccnc(-c3nnn(Cc4oc(=O)oc4C)n3)c2)n1
103 to 105 °C | CN(C(=O)OC(C)(C)C)c1ccc(C#CCCCO)cc1
234 to 235 °C | CS(=O)(=O)NCCCCn1c(-c2ccccc2)nc2c(N)nc3ccccc3c21
126 to 128 °C | COc1ccc(C[C@@H](C(=O)[C@H](Cc2ccc(OC)c(OC)c2)N2C(=O)c3ccccc3C2=O)N2C(=O)c3ccccc3C2=O)cc1OC
245 °C | Oc1nc2cccccc-2n1
184 to 185 °C | COc1ccnc(C(=O)c2[nH]c3cc(Cl)ccc3c2NC(=O)N(C)OC)c1
120 to 121 °C | CCOC(=O)c1cn(CCCN(C)C)c2nn(C)cc2c1=O
222 °C | Cc1ccc(-c2cc(C(F)(F)F)n3cnc(-c4ccncc4)c3n2)cc1C(F)(F)F
58 to 60 °C | CN(C)c1cccc(CC(=O)Cc2cccc(Cl)c2)c1
244 to 247 °C | COc1ccc2nc(NC(=O)C(CC3CCCC3)c3ccc(S(=O)(=O)NCc4ccco4)cc3)sc2n1 (stereo not given)
188 to 190 °C | CN(C)S(=O)(=O)c1cc(-c2csc(=Nc3ccc(O)cc3)n2C)ccc1Cl
153 to 154 °C | CNC(=O)c1cnn2c(C(=O)N3CCN(C(=O)OC(C)(C)C)CC3)c(Cc3cccc(F)c3C)c(-c3ccccc3)c2c1
205 to 207 °C | O=[N+]([O-])c1cccc2nc3c(nc12)OCC1CCCCN31 (stereo not given)
70 °C | CCCC(=O)OC1CSC(Oc2cccnc2)C(OC(=O)CCC)C1OC(=O)CCC (stereo not given)
181 to 182 °C | Cc1nccn1NCc1cc(C(C)(C)C)c(O)c(C(C)(C)C)c1
> 200 °C | NC(=O)c1ccc(-c2cnc3c(c2)N(Cc2ccccc2)C(=O)CN3)cc1
148 to 154 °C | CCC(=O)Nc1c([N+](=O)[O-])cnn1-c1nc(Cl)c(C(F)(F)F)cc1Cl
106 °C | CCOC(=O)C(Cl)=NNc1ccccc1Br
150 °C | COc1ccc(C=CC(=O)N(C)O)cc1OC
136 to 138 °C | COc1ccc2cccc(/C(CNC(C)=O)=N/O)c2c1
105 to 107 °C | Cc1ccc(S(=O)(=O)NCC(C)NS(=O)(=O)c2ccc(C)cc2)cc1 (stereo not given)

melting point | SMILES
79 to 80 °C | COc1ccc2c(c1)CC[C@@H](O)[C@@H]2N1CCCC1 (relative stereo)
134 to 137 °C | Cc1ccc(S(=O)(=O)N2CCC(c3ccc(C=O)cc3)CC2)cc1
142 to 144 °C | CN(c1cccc2cc(C3=NCC(CN4CCSCC4)S3)[nH]c12)S(=O)(=O)c1ccccn1 (stereo not given)
95 to 97 °C | CN(C)CCNc1nc2cc(Cl)c(Cl)cc2nc1-c1ccccn1
78 to 82 °C | COC(=O)[C@@H]1CCCN1C(=O)CCC(=O)c1ccc(Br)cc1
158 to 160 °C | CCOC(=O)N1CCN(C(=O)Cn2sc3ccccc3c2=O)CC1
191 to 192 °C | COC(=O)c1nccnc1Nc1ccc(Cl)cc1[N+](=O)[O-]
128 to 130 °C | CN1CCN(Cc2cccc(-c3cc4c(Nc5ccc6[nH]ccc6c5)c(C#N)cnc4s3)c2)CC1
164 to 167 °C | O=C1c2ccccc2CCC1CN1CCC(O)(c2ccccc2)CC1 (stereo not given)
163 to 169 °C | CN1CCN(c2cc(Cl)cc3c2c(=O)n(CC2CCCCC2)c(=O)n3Cc2ccccc2)CC1
129 to 133 °C | COC(=O)C(Cc1ccccc1)Oc1ccc2cc(CNC(=O)c3oc4ccccc4c3C)ccc2c1Br (stereo not given)
243 °C | O=C(NC1CCC(Oc2ccc(F)cc2)CC1)NC12CC3CC(CC(C3)C1)C2 (stereo not given)
212 to 214 °C | O=[N+]([O-])c1ccc(NN=CCc2cccnc2)cc1
72 to 76 °C | NC[C@@H](O)[C@H](Cc1ccccc1)N(Cc1ccccc1)Cc1ccccc1
153 to 157 °C | COC(=O)[C@]1(C)Oc2ccccc2NC1=O
141 to 145 °C | O=C(Cl)c1ccccc1Nc1cccc([N+](=O)[O-])c1
141 to 142 °C | CN(O)C(=O)C=Cc1ccc(F)cc1
41 to 43 °C | COc1cccc(CCC(=O)CCCCCC(=O)O)c1
178 to 179 °C | Cn1c(-c2ccccc2)cc2oc(=O)nc(-c3ccccc3)c2c1=O
59 to 60 °C | CCOc1ccccc1NC(=O)C(C)(C)CCCOc1cc(C)ccc1C

The remaining lines, values behind:

SMILES | melting point
O=C1OCC2C3OC(C4=C3CCCC4)C12 (stereo not given) | 105 to 106 °C
COC(=O)/C(=N/NC(N)=O)c1ccc(OCCOc2ccc3ccccc3c2)cc1 | 132 to 134 °C
Nc1ccc2c(c1)OCC(CN1CC=C(c3c[nH]c4ccccc34)CC1)O2 (stereo not given) | 199 to 200 °C
Cc1oc(-c2ccccc2)nc1COc1cccc(COc2cncc(CC(=O)O)c2)c1 | 158 to 159 °C
Cn1ccnc1CCNC(=O)c1ccccc1NS(=O)(=O)c1cccc(C(F)(F)F)c1 | 127 to 129 °C
CC(C)(C)c1ccc(C(=O)Nc2cn3c4c(ccc3n2)OCC4)cc1 | 266 to 268 °C
O=C(NCC1CC1)c1ccc(-c2ccc3nnn(Cc4ccc5ncccc5c4)c3n2)cc1F | 120 to 122 °C
CCN(Cc1c(F)cccc1Cl)c1c([N+](=O)[O-])cc(C(F)(F)F)c(Cl)c1[N+](=O)[O-] | 118 to 125 °C
CS(=O)(=O)N1CCn2c(nc3c(N)nc4cc(Br)ccc4c32)C1 | 315 to 317 °C
Cc1[nH]c2ccccc2c1CCCN1CCC(c2noc3ccc(F)cc23)CC1 | 144 to 146 °C
OC[C@@H]1OC[C@H](n2c(NC3CC3)nc3cc(Cl)c(Cl)cc32)[C@@H](O)[C@H]1O | 164 °C
N#Cc1cnn2c1NCC=C2c1cc(Cl)ccc1Cl | 222 to 223 °C
COc1cc(N)c(Cl)cc1C(=O)CCC1CCNCC1 | 138 to 140 °C
Cc1nnc(C(C)(C)C)c(=O)n1N | 155 to 157 °C
N#Cc1ccc(F)cc1-c1ccco1 | 55 to 56 °C
Cc1nc2n(c(=O)c1CCO)CCCS2 | 155 °C
C#CCc1c(Cl)nc(N)nc1Cl | 211 to 212 °C
CC(=O)c1ccc(CCCOc2c(C)cc(N3CN=C(C(F)(F)F)O3)cc2C)nn1 | 86 to 87 °C
NC(=O)CC(CC(N)=O)c1cccc(OCc2ccccc2)c1 | 205 to 207 °C
C[C@H](CO)Nc1nc(SCc2cccc(C(F)(F)F)c2F)nc2[nH]c(=O)cnc12 | 217 to 219 °C

SMILES | melting point
COc1cc(N)nc(N2CCOCC2)n1 | 162 to 164 °C
O=C(c1cccs1)C(Cc1ccccc1F)n1cncn1 (stereo not given) | 121 to 122 °C
C[C@H](Cc1ccc2c(c1)cc(C(=O)O)n2CC1CC1)NC[C@H](O)c1cccc(Cl)c1 | 207 to 209 °C
Cc1ccn2c(C)c(CCc3ccc4nc(C)oc4c3)nc2c1 | 83 to 85 °C
CCN(CCO[N+](=O)[O-])C(=O)COC(=O)[C@@H](C)c1ccc2cc(OC)ccc2c1 | 60 to 61 °C
CC(=O)N(C(C)=O)c1cscn1 | 55 °C
C[C@H](CO)[C@H]1CC[C@H]2[C@@H]3C=CC4=CC(=O)C=C[C@]4(C)[C@H]3CC[C@]12C | 156 to 157 °C
Clc1ncnc2ccccc12 | 83 °C
COC(=O)CCCc1cc2cc(Cl)ccc2n1S(=O)(=O)c1ccc2nc(N)oc2c1 | 238 °C
CCc1n[nH]c(=O)c2c(C)ncn12 | 175 to 178 °C
C#CCn1nnc2cc3c(cc2c1=O)OC1CCCN1C3=O (stereo not given) | 186 to 188 °C
NC(=O)c1ccc(N2CCN(Cc3cn4cc(Br)ccc4n3)CC2)cc1 | 238 to 239 °C
CCCc1nc2c(N)nc3cc(OCc4ccc(C(C)(C)C)cc4)ccc3c2n1CC(C)C | 204 to 205 °C
COc1ccc(C=CC(=O)c2c(O)cc(OC)cc2OC(C)C)cc1 | 113 °C
CCOc1ccc2c(c1)C(=O)N(c1ccc3c(ccn3C)c1)C2 | 185 to 190 °C
Cc1cc(-n2cncn2)c2cccc(OCc3c(Cl)ccc(S(=O)(=O)N4CCC[C@H]4C(=O)NCC4CCN(CCCO)CC4)c3Cl)c2n1 | 136 °C
CN1C(=O)C(C)(Cc2ccccc2)N(C)C(=O)C1C1NC(=O)c2cccc(F)c21 (stereo not given) | 183 to 185 °C
CCC(CC)c1ccc(Cl)c2nc3n(c12)CCCCN3c1ncc(C(C)=O)cc1C | 142 °C
N#CCCc1cc(N2C(=O)C3=C(CCCC3)C2=O)ccc1Cl | 87 to 97 °C
CCCc1nc(N)nc(N)c1N1CCN(c2ccc(C(=O)N[C@@H](CCC(=O)OCC)C(=O)OCC)cc2)CC1 | 175 to 180 °C

SMILES | melting point
NC(=O)CN1CCN(C(=O)c2cc(C(F)(F)F)cc(C(F)(F)F)c2)[C@H](Cc2c[nH]c3ccccc23)C1 | 170 to 173 °C
NNc1ccc(C(=O)c2ccccc2)cc1[N+](=O)[O-] | 163 to 164 °C
Cc1sc(-c2ccc(C#N)cc2)nc1O | 220 to 221 °C
CCOC(=O)CCCCC(=O)c1[nH]c(=O)[nH]c1C | 170 to 172 °C
Nc1ncc(Cc2ccccc2)cc1Br | 110 to 111 °C
CC(=O)Oc1ccc(/C=C/c2cc(C)cc(C)c2)cc1 | 84.9 to 85 °C
COCCN1CCc2cc(OC)c(O)cc2C1C1(c2ccccc2Cl)CC1 (stereo not given) | 115 to 120 °C
CCN(CC)C(=O)c1ccnc(Br)c1 | 200 to 203 °C
NS(=O)(=O)c1cc(C(=O)O)cc(SCc2ccsc2)c1Oc1ccccc1 | 222 to 224 °C
CC(=O)N1C(=O)N(COCc2ccccc2)C(=O)C12c1ccccc1NC(=O)N2C (stereo not given) | 209 to 211 °C
CC(C)C1OP(N(CCCCCCN(C2CC(C)(C)NC(C)(C)C2)P2OCC(C)(C)C(C(C)C)O2)C2CC(C)(C)NC(C)(C)C2)OCC1(C)C (stereo not given) | 95 to 97 °C
CCOc1cc2ncc(C#N)c(Nc3cccc(Cl)c3)c2cc1OCC | 188 to 190 °C
Clc1ccc(C2=NNC(c3cccnc3)S2)cc1 (stereo not given) | 106 to 108 °C
CCC(=O)N[C@@H](C)C(=O)N1CCC[C@H]1C(=O)NC1CCCCC1 | 172 to 174 °C
Cc1cc(O)c(S(=O)Cc2ccc(Cl)cc2)c(=O)o1 (stereo not given) | 150 to 151 °C
CC(=O)N(C#N)Cc1ccccc1 | 42 °C
O=C(O)C=CCCCc1cccc2cncn12 | 142 to 144 °C
CC(=O)c1c(-c2ccccc2)nn(CC2CC2)c(=O)c1Nc1cccc2ncccc12 | 204 to 205 °C
CCOC(=O)CCCCCCCCCCNC(=O)CN(CCN(CCN(CC(=O)O)CC(=O)O)CC(=O)O)CC(=O)O | 155 to 157 °C
